This note sets out measurements from publication PMC7000209, “Novel small molecule modulators of quorum sensing in avian pathogenic Escherichia coli (APEC)” (Virulence, 2018).

For assay [1], the system named is AI-2 activity of O35. The assay can be described thus: AI-2 bioluminescence indicator assay, APEC O35. It counts as cell-based, avian pathogenic E. coli (APEC) O35. The settings on record: Escherichia coli, read-out: % Inhibtion of AI-2 activity, serotype O35, bioluminescence vs DMSO treated control. Here is the method: (§1) Overnight culture of APEC O78 prepared in LB broth was adjusted to an optical density (OD600) of 0.05 (7 × 10^7 CFU/mL) in fresh LB broth. One hundred micro-liters of the culture was transferred to a 96-well plate and 1µL (100 μM final concentration) of the compound was added to each well using a pin tool. Chloramphenicol (40 μg/mL) or kanamycin (30 μg/mL) and 1μL of 100% DMSO were included as controls in each plate. Plates were incubated at 37 °C for 10 h with shaking in a Sunrise^TM Tecan plate reader (Tecan Group Ltd. San Jose, CA, USA) and the growth was kinetically monitored every 30 min by measuring the OD at 600 nm.
(§2) The AI-2 bioluminescence assay was performed as described previously. Briefly, APEC O78 cultures grown in the presence of SMs (see above) were centrifuged at 5000 × g for 10 min, and cell-free culture supernatants were prepared by using a 0.22 µm filter 96 well plate (Millipore). The bioluminescence reporter V. harveyi BB170 (AI-1^+ and AI-2^-) was grown overnight in AB medium at 30 °C aerobically with shaking. The overnight culture was diluted to 1:5000 in fresh AB medium and incubated at 30 °C for 3 h. Following incubation, 180 μL of the V. harveyi BB170 culture was distributed into each well of a 96-well plate and mixed with 20 µL of the cell free culture supernatant, the plate was then incubated at 30 °C for 2.5 h in the dark and the bioluminescence was measured using in vivo imaging system (IVIS Lumina Series III, PerkinElmer, USA). […] Cell-free culture supernatants collected from overnight cultures of V. harveyi BB120 (AI-1^+andAI-2^+) and E. coli DH5α (a strain lacks AI-2) were used as controls. Bioluminescence of SMs treated culture supernatants were compared to DMSO treated control. The Z-score was calculated to evaluate the quality of the bioluminescence screening. Four independent experiments were conducted for the 69 compounds that inhibited ≥ 75% of the AI-2 mediated bioluminescence and the average inhibition percentage was calculated.
(§3) The selected compounds were also tested for inhibition of AI-2 production in other APEC serotypes such as O1, O2, O8, O15, O18, O35, O109, and O115 that are commonly implicated in colibacillosis using the same procedure described above.

The subject of assay [2] is AI-2 activity of O109. Description: AI-2 bioluminescence indicator assay, APEC O109. The settings on record: Escherichia coli, read-out: % Inhibtion of AI-2 activity, serotype O109, bioluminescence vs DMSO treated control. It counts as cell-based, avian pathogenic E. coli (APEC) O109. The procedure:
as §1, §2, §3

For assay [3], the system named is AI-2 activity of O8. The assay can be described thus: AI-2 bioluminescence indicator assay, APEC O8. It is filed as cell-based, avian pathogenic E. coli (APEC) O8. The settings on record: Escherichia coli, read-out: % Inhibtion of AI-2 activity, serotype O8, bioluminescence vs DMSO treated control. Here is the method:
as §1, §2, §3

In assay [4] the test system is APEC O78 biofilm formation. The assay can be described thus: Biofilm assay (crystal violet). It counts as cell-based, avian pathogenic E. coli (APEC) O78. The settings on record: 48 h; for inhibition at 100 µM: Escherichia coli, crystal violet OD550 vs DMSO control, read-out: reduction of APEC O78 biofilm formation. Here is the method: Effect of the selected AI-2 inhibitors on biofilm formation was assessed using the crystal violet (CV) assay. Briefly, APEC O78 was grown in LB broth in the presence of 100 µM of each compound in a 96-well plate at 37 °C for 10 h. The culture was then diluted 1:100 in fresh LB broth. The biofilm assay was performed in a 96-well plate containing 150 µL of the diluted culture and 100 µM of each compound. The plate was then incubated aerobically without shaking at 37 °C for 48 h, washed twice with PBS to remove the non-adherent cells and stained with 200 µL of 0.1% CV in water at room temperature for 10 min. The plate was washed with PBS and biofilm was quantified by measuring the absorbance at 550 nm after solubilizing the CV in 200 μL of 30% acetic acid in water for 15 min.

The test system of assay [5] is QS-regulated and virulence factors genes of APEC O78. The assay can be described thus: qRT-PCR of QS-regulated and virulence factor genes. It is filed as cell-based, avian pathogenic E. coli (APEC) O78. The settings on record: APEC O78, 100 µM, 10 h, ∆∆Ct vs DMSO. The procedure:
The effect of the selected AI-2 inhibitors on the expression of QS-regulated and virulence factors genes of APEC was determined using qRT-PCR. APEC O78 was grown in the presence of 100 µM of each compound in a 96-well plate at 37 °C for 10 h. APEC O78 culture treated with 1µL of 100% DMSO was used as control. Total RNA was extracted from duplicate wells for each compound (200 µL) using a miRNeasy Mini Kit (Qiagen). RNA quality and quantity was determined by nanodrop 2000 C spectrophotometer (Thermo scientific). Traces of DNA were removed using Genomic DNA removal mix (Qiagen). Approximately, 5 μg of purified RNA was used to synthesize cDNA using the Qiagen RT^2 First Strand Kit (Qiagen). The qRT-PCR was performed using SensiMix^TM SYBR® Hi-ROX qPCR Master Mix (Bioline) according to manufacturer instructions in a realplex^2 mastercycler (Eppendorf) with 55 °C annealing temperature. Gene-specific primers were designed using PrimerQuest Tool and obtained from integrated DNA technologies (IDT). The data were normalized to the house-keeping gene, glyceraldehyde-3-phosphate dehydrogenase (GAPDH). The relative fold change was calculated using the ∆∆Ct method. Three independent experiments were conducted.

The test system of assay [6] is AI-2 activity of O18. Description: AI-2 bioluminescence indicator assay, APEC O18. It is filed as cell-based, avian pathogenic E. coli (APEC) O18. The settings on record: Escherichia coli, read-out: % Inhibtion of AI-2 activity, serotype O18, bioluminescence vs DMSO treated control. The procedure:
as §1, §2, §3

Assay [7] concerns AI-2 activity of APEC O2. Description: AI-2 bioluminescence indicator assay, APEC O2. It is filed as cell-based, avian pathogenic E. coli (APEC) O2. The conditions noted are these: Escherichia coli, read-out: % Inhibtion of AI-2 activity. The procedure:
as §1, §2, §3

Assay [8] relates to AI-2 activity of O115. The assay can be described thus: AI-2 bioluminescence indicator assay, APEC O115. It counts as cell-based, avian pathogenic E. coli (APEC) O115. The conditions noted are these: Escherichia coli, read-out: % Inhibtion of AI-2 activity, serotype O115, bioluminescence vs DMSO treated control. Here is the method: as §1, §2, §3
Assay [9] has as its system AI-2 activity of APEC O78. The assay can be described thus: AI-2 bioluminescence indicator assay (V. harveyi BB170), APEC O78 supernatant. It counts as cell-based, avian pathogenic E. coli (APEC) O78. The settings on record: Escherichia coli, read-out: % Inhibtion of AI-2 activity. Here is the method:
as §1, §2

Assay [10] has as its system AI-2 activity of O15. Description: AI-2 bioluminescence indicator assay, APEC O15. It counts as cell-based, avian pathogenic E. coli (APEC) O15. The conditions noted are these: Escherichia coli, read-out: % Inhibtion of AI-2 activity, serotype O15, bioluminescence vs DMSO treated control. The procedure: as §1, §2, §3

Structures are written as SMILES.

For the compound `COCCN1CCC(CN(Cc2ccncc2)Cc2ccccc2Cl)CC1` [C1, (2-chlorobenzyl){[1-(2-methoxyethyl)-4-piperidinyl]methyl}(4-pyridinylmethyl)amine], the inhibition at 100 µM in assay [1] amounted to 48%; in [2], 65%; in [3], 20%; in assay [6], 37%; in [7] it was 94%; in assay [8], 64%. Also, the inhibition at 100 µM in [9] stood at 84%; in [10] it was 13%. For the same compound, in [4] (100 µM, vs DMSO treated control), the “effect on APEC O78 biofilm formation (in words)” value was “no effect”. The expression of hha result in assay [5] is “down-regulated”. Besides, in assay [5], the expression of iss result is given as “down-regulated”. Moreover, the “expression of murD” value in [5] is listed as “down-regulated”. Moreover, the “expression of thiH” value in assay [5] was “down-regulated”. Moreover, the “expression of ugpC” value in [5] is given as “down-regulated”.

Regarding `Cc1ccccc1N1CCN(C2CCCN(C(=O)c3ccc(F)c(Cl)c3)C2)CC1` (stereo not drawn) [C2, 1-[1-(3-chloro-4-fluorobenzoyl)-3-piperidinyl]-4-(2-methylphenyl)piperazine], the inhibition at 100 µM in assay [1] was 55%; in assay [2], 57%; in assay [3] it was 20%; in assay [4], 52 to 58%; in assay [6] it was 43%; in assay [7] it was 96%. Further, the inhibition at 100 µM in assay [8] is 52%; in assay [9], 92%; in assay [10], 27%. For the same compound, in [5], the expression of hha result was “down-regulated”. The “expression of ugpC” value in assay [5] is “down-regulated”.

With `NC(=O)c1ccccc1Nc1cccc(C(F)(F)F)c1` [C3, 2-{[3-(trifluoromethyl)phenyl]amino}benzamide], the inhibition at 100 µM in [1] is 37%; in assay [2], 0%; in assay [3], 39%; in assay [4], 63 to 66%; in [6], 8%; in assay [7], 54%. For the same compound, the inhibition at 100 µM was 35% in [8], 78% in [9] and 0% in assay [10]. Moreover, the expression of fpr result in assay [5] was “down-regulated”.

Take `CS/C(N)=N/N=C/c1cc(C)ccc1O` [C4, methyl N'-(2-hydroxy-5-methylbenzylidene)h ydrazonothiocarbamate]: the inhibition at 100 µM in [1] was 60%; in assay [2] it was 67%; in assay [3], 0%; in assay [4] it was 63 to 66%; in [6], 54%; in assay [7] it was 76%. Besides, the inhibition at 100 µM worked out at 58% in assay [8], 75% in [9] and 46% in [10]. In addition, the “expression of cheW” value in assay [5] was “down-regulated”. Also, in assay [5], the “expression of csrA” value is recorded as “down-regulated”. The “expression of iucD” value in assay [5] is reported as “down-regulated”. In addition, the “expression of luxS” value in assay [5] is recorded as “did not”. In addition, the expression of pfs entry in [5] is “up-regulated”.

Consider `Cc1ccc(CN2CCN(CCCc3ccccc3)CC2)cc1` [C5, 1-(4-methylbenzyl)-4-(3-phenylpropyl)piperazine], for which the inhibition at 100 µM in assay [1] is 68%; in assay [2] it was 69%; in assay [3] it was 18%; in assay [4], 63 to 66%; in assay [6], 61%; in assay [7], 89%. Further, the inhibition at 100 µM in assay [8] was found to be 63%; in assay [9], 83%; in assay [10], 45%. Moreover, the “expression of fliP” value in [5] is on record as “down-regulated”. For the same compound, in assay [5], the expression of fpr result is given as “down-regulated”. Also, in assay [5], the expression of hha entry is reported as “down-regulated”. Further, in assay [5], the expression of wzb result is reported as “down-regulated”.

In the case of `O=[N+]([O-])c1cccc(S(=O)(=O)Nc2ccc(Br)cc2)c1` [C6, N-(4-bromophenyl)-3-nit robenzenesulfonamide], the inhibition at 100 µM in assay [2] was 60%. The inhibition at 100 µM in assay [3] was ≥ 75%. In addition, the inhibition at 100 µM in assay [4] fell in the range of 63 to 66%. For the same compound, in [5], the “expression of cheW” value is listed as “down-regulated”, the “expression of csrA” value is “down-regulated”, the “expression of fliP” value is reported as “down-regulated” and the expression of fpr entry is on record as “down-regulated”. Besides, in assay [5], the expression of hha entry is recorded as “down-regulated” and the “expression of murD” value is given as “down-regulated”. Also, the inhibition at 100 µM in assay [6] was ≥ 75%. Besides, the inhibition at 100 µM in assay [7] came out at 93%. Besides, in [9], the inhibition at 100 µM came to 92%.

With `O=C(CCN1CCN(c2ccccc2F)CC1)Nc1ccc(Br)cc1` [C7, N-(4-bromophenyl)-3-[4-(2-fluorophenyl)-1-piperazinyl]propanamide], the inhibition at 100 µM was 62% in assay [1]; 67% in [2]; 2% in [3]; 63 to 66% in [4]; 48% in [6]; 83% in assay [7]. In addition, the inhibition at 100 µM in [8] stood at 45%; in assay [9] it was 94%; in [10] it was 36%. For the same compound, in assay [5], the “expression of nlpC” value is recorded as “up-regulated”.
